For the series the following is noted: buffer; pH 7.4; 6.0 h; 150.0 µM.

In brackets after ≈: the same amount, converted by molar mass.

As usually defined, the solubility (kinetic) is the concentration staying in solution when a stock, usually in DMSO, is diluted into the medium.

`CNc1nc(-c2cccc3ccccc23)ccc1C#N` showed a kinetic solubility of less than 1 µg/mL.
For `CCCCOc1ccc(C2c3c(oc4ccc(C)cc4c3=O)C(=O)N2CCCN(C)C)cc1OCC` (centres undefined), the kinetic solubility was 58.5 µg/mL (≈ 119 µM).
Regarding `Cc1ccc(-c2csc(N3CCC(C(N)=O)CC3)n2)cc1`, the kinetic solubility was found to be 32.9 µg/mL (≈ 109 µM).
The result for `COc1cccc(CNc2ccc([S+](=O)([O-])Nc3cc4ccccc4s3)cc2)c1O` reads less than 1 µg/mL; that for `CC(C)c1ccccc1-c1ncc(F)c(NC2(c3ccc(-c4cccnc4)cc3)CC2)n1`, less than 1 µg/mL.
The result for `CCOc1ccc(C(=O)Nc2ccc(S(=O)(=O)N3CCCCC3c3cccnc3)cc2)cc1` (centres undefined) reads less than 1 µg/mL; that for `CN1CCN(c2ccc(Nc3c4ccccc4nc4ccccc34)cc2)CC1`, greater than 54 µg/mL.
The value for `CCOc1ccc(CCNC(=O)c2cc3ncccc3n2Cc2cccc(C)n2)cc1OCC` was greater than 68 µg/mL; that for `COc1c(C)c2c(c(O)c1C/C=C(\C)CCC(=O)OCCN1CCOCC1)C(=O)OC2` was greater than 64 µg/mL.
Molecule `Cc1nnc(-c2ccccc2C(C)C)nc1NCc1ccc(-c2cccnc2)cc1` returned a solubility (kinetic) of less than 1 µg/mL.
Take `NC(=O)C1CCN(c2nc(-c3ccc([N+](=O)[O-])cc3)cs2)CC1`: the solubility (kinetic) amounted to 1.7 µg/mL (≈ 5.1 µM).
Molecule `N#Cc1ccc(S(=O)(=O)Nc2cnccc2C(=O)Nc2nc(-c3ccccc3)cs2)cc1` showed a kinetic solubility of 6.96 µg/mL (≈ 15.1 µM).
The molecule `CCC1=Nc2cc(C(=O)NCCCOC)ccc2Sc2ccc(Br)cc21` registered a solubility (kinetic) of 6.63 µg/mL (≈ 15.3 µM).
In turn, `Nc1c(C(=O)Nc2ccc(Cl)c(C(F)(F)F)c2)sc2nc3c(cc12)N1CCC3CC1` displayed a solubility (kinetic) of less than 1 µg/mL.
Regarding `O=C(O)c1ccnc2cc(-c3nc4ccccc4n3CCN3CCCCC3)sc12`, the solubility (kinetic) stood at 6.93 µg/mL (≈ 17.1 µM).
Turning to `CN(C)c1cccc(-c2cc(N3CCC(C(N)=O)CC3)ncn2)c1`, the kinetic solubility is greater than 48 µg/mL.
The value for `CN(C)C(=O)c1cccc(-c2csc(N3CCC(C(N)=O)CC3)n2)c1` was greater than 53 µg/mL; that for `CCc1[nH]c2ccc(CNC(=O)Cc3cnc4c(C)cccn34)cc2c1C` was 17.3 µg/mL (≈ 47.9 µM); that for `Cc1ccc(-c2csc(NC(=O)c3ccncc3NS(=O)(=O)c3ccc(C)cc3)n2)cc1` was less than 1 µg/mL.
Regarding `C[S+](=O)([O-])N1CCC(Cn2ccc3c(N4CCOCC4)nc(-c4cccc5[nH]ccc45)cc32)CC1`, the kinetic solubility was less than 1 µg/mL.
`N#Cc1cccc(S(=O)(=O)Nc2cnccc2C(=O)Nc2nc(-c3ccccc3)cs2)c1` displayed a kinetic solubility of 34.3 µg/mL (≈ 74.3 µM).
The molecule `Cc1ccccc1C(=O)N1CCc2cc(-c3csc(NC(=O)Cc4ccc5c(c4)OCO5)n3)ccc21` registered a kinetic solubility of less than 1 µg/mL.
In turn, `Cc1ccnc(NC(=S)N2CCN(c3cccc(C(F)(F)F)c3)CC2)c1` showed a kinetic solubility of 9.68 µg/mL (≈ 25.4 µM).
`CCc1cccc(NC(=O)C(Cc2ccccc2)NS(=O)(=O)c2cccs2)c1` (centres undefined) displayed a kinetic solubility of less than 1 µg/mL.
Take `NC(=O)Nc1cc(-c2ccc(CN3CCOCC3)cc2)sc1C(N)=O`: the solubility (kinetic) was determined as 14.3 µg/mL (≈ 39.6 µM).
The result for `Fc1ccc(CNc2nc(-c3ccncc3)nc3ccccc23)cc1F` reads less than 1 µg/mL; that for `Cc1ccc(S(=O)(=O)Nc2cnccc2C(=O)Nc2nc3ccccc3s2)cc1`, greater than 63 µg/mL.
`Cc1ccc(NC(=O)NCC2CCN(Cc3cccc(Cl)c3)CC2)cc1Cl` displayed a solubility (kinetic) of less than 1 µg/mL.
In turn, `CN(Cc1ccc(/C=C/C(=O)NO)cc1)CC12CC3CC(CC(C3)C1)C2` gave a solubility (kinetic) greater than 35 µg/mL.
The result for `CCOC(=O)c1ccc(-c2ccc3ncnc(NCCc4cnc[nH]4)c3c2)o1` reads 26.2 µg/mL (≈ 69.4 µM); that for `CC1=C[C@@H](CNC(C)C)[C@H](C(C)C)C[C@H]1Cc1nnc(-c2ccncc2)o1`, greater than 54 µg/mL.
`Cc1ccc(-n2ncc3c(Nc4cccc(C(=O)O)c4)ncnc32)cc1` registered a solubility (kinetic) greater than 51 µg/mL.
For the molecule `O=C(c1ccccc1)N1CCC(c2nn(-c3ccc(F)cc3)c(=O)[nH]2)CC1`, the solubility (kinetic) was greater than 54 µg/mL.
The molecule `COc1ccc(CN(C2CCCCC2C)S(=O)(=O)c2ccc(S(=O)(=O)N(C)C)cc2)cc1OC` (centres undefined) displayed a solubility (kinetic) of less than 1 µg/mL.
As for `Cc1cnc(-c2ccccc2OC(C)C)nc1NCc1ccc(-n2ccnn2)cc1`, the kinetic solubility is 41.4 µg/mL (≈ 103 µM).
On to `O=C(c1ccc2c(c1)ncn2-c1ccccc1)N1CCCCC1`, for which the solubility (kinetic) is greater than 45 µg/mL.
The molecule `O=S(=O)(Nc1ccc(-c2ccccc2)cc1)c1ccc(NCc2cccc(Cl)c2O)cc1` gave a kinetic solubility of less than 1 µg/mL.
As to `CN1CCC(N(Cc2cccs2)c2ccccc2)CC1`, the kinetic solubility was greater than 42 µg/mL.
`C#CCNC(=O)c1nc(-c2ccc([S+](C)(=O)[O-])cc2)c2cnccn12` registered a kinetic solubility of less than 1 µg/mL.
Turning to `Cc1cccc(C(=O)Nc2ccc(N3CCC(N4CCCCC4)CC3)c(C(=O)O)c2)c1`, the solubility (kinetic) is greater than 62 µg/mL.
Molecule `O=C(NCCO)c1cccc(-c2cc(Nc3ccc(OC(F)(F)F)cc3)ncn2)c1` displayed a solubility (kinetic) of 8.93 µg/mL (≈ 21.3 µM).
In turn, `CC(C)c1ccccc1-c1ncc(F)c(NC(C)(C)c2ccc(-n3ccnn3)cc2)n1` came in with a kinetic solubility of 1.14 µg/mL (≈ 2.74 µM).
In turn, `COc1cc(Cl)cn2c(-c3cccc(NC4CNC4)n3)cnc12` yielded a kinetic solubility greater than 49 µg/mL.
Molecule `Clc1ccc(C2=Nn3c(nnc3-c3ccncc3)SC2)cc1` came in with a kinetic solubility of 1.45 µg/mL (≈ 4.42 µM).
Molecule `Cc1ccccc1C(=O)N1CCc2cc(-c3nc(NC(=O)Cc4ccc5c(c4)OCO5)sc3C)ccc21` showed a kinetic solubility of less than 1 µg/mL.
Turning to `NC(=O)C1CCN(c2ncnc(-c3ccc4c(c3)OCCCO4)n2)CC1`, the kinetic solubility is greater than 52 µg/mL.
The value for `CC1=C(C(=O)Nc2ccccc2)C(c2ccc[nH]2)n2ncnc2N1` (centres undefined) was 9.06 µg/mL (≈ 28.3 µM); that for `Nc1nc2c(s1)C(c1cc(Cl)ccc1F)CC(=O)N2` (centres undefined) was 3.78 µg/mL (≈ 12.7 µM).
`c1ccc(Nc2cc(-c3ccoc3)ncn2)cc1` showed a solubility (kinetic) of 16.2 µg/mL (≈ 68.3 µM).
For the molecule `CCc1ccc(OC(C)C(=O)N2CCC(c3nc4ccccc4o3)CC2)cc1` (centres undefined), the kinetic solubility was 17.9 µg/mL (≈ 47.3 µM).
On to `NC(=O)C1CCN(c2nc(-c3ccc(Oc4ccccc4)cc3)cs2)CC1`, for which the solubility (kinetic) was less than 1 µg/mL.
In turn, `Cc1cc(C)c2nc(-c3ccccn3)cc(C(=O)Nc3ccc(S(=O)(=O)Nc4onc(C)c4C)cc3)c2c1` registered a solubility (kinetic) of 12 µg/mL (≈ 22.7 µM).
Molecule `COc1ccccc1C(=O)Nc1nc2nc(C)cc(=O)n2[nH]1` displayed a kinetic solubility greater than 44 µg/mL.
`O=C1CCCC2=C1C1(CCSCC1)N=C(Nc1nc3ccccc3o1)N2` displayed a solubility (kinetic) of less than 1 µg/mL.
For `Cc1noc(C)c1CN1CCNc2cc(Nc3ccccc3)ncc2C1`, the solubility (kinetic) is greater than 77 µg/mL.
Molecule `Cc1ccc(-c2cc(C(=O)Nc3ccc(-c4noc(=O)[nH]4)cc3)c3ccccc3n2)cc1C` gave a solubility (kinetic) of 1.39 µg/mL (≈ 3.19 µM).
The result for `O=C1Nc2ccccc2/C1=C/c1ccc[nH]1` reads 1.91 µg/mL (≈ 9.09 µM); that for `Cc1ccc(-c2ccc(CNc3nc(-c4ccccc4C(C)C)nc4ccccc34)cc2)cn1`, less than 1 µg/mL; that for `COc1cc2nccc(Oc3ccc(NC(=O)Nc4cc(C)on4)c(Cl)c3)c2cc1OC`, less than 1 µg/mL.
Molecule `COc1ccc(Cn2c(=O)[nH]c3cc(C(=O)NCCCN4CCCCC4)ccc3c2=O)cc1` had a solubility (kinetic) greater than 67 µg/mL.
The molecule `CCN1C(=O)c2ccccc2S(=O)c2ccc(C(=O)NCc3ccc(OC)cc3)cc21` (centres undefined) returned a kinetic solubility of 10.4 µg/mL (≈ 23.9 µM).
The molecule `CCOc1ccc(S(=O)(=O)NCc2cccnc2)cc1NC(=O)c1ccccc1F` displayed a kinetic solubility of less than 1 µg/mL.
The value for `CCc1ccc(S(=O)(=O)Nc2cnccc2C(=O)Nc2nc(-c3ccccc3)cs2)cc1` was less than 1 µg/mL; that for `Cc1cnc(-c2ccccc2C(C)(C)C)nc1NCc1ccc(-n2ccnn2)cc1` was 13.2 µg/mL (≈ 33.2 µM).

Values taken from PubChem BioAssay AID1645848.
